Measured values: US11098055B2, “Ester ACC inhibitors and uses thereof” (Gilead Apollo, LLC, priority 2015, dated 2021)
≈ marks a conversion by molar mass, not a printed value.

Legend:
[1] = test system: C. krusei ATCC 6258; assay: Anti-Fungal (Candida) Activity Assay, broth microtiter MIC; assay type: cell-based, Candida krusei; settings: Pichia kudriavzevii, ATCC6258, 48 h, Table 3b (additional results); 3 replicates; MIC read at 48 h
How it was run: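 Broth microdilution per CLSI M27-A3 in RPMI 1640 + MOPS, at a final inoculum of 2.5×10^3 CFU/mL. Compound DMSO stocks were diluted in water to a 128 μg/mL working solution. MIC was read visually against the growth control at 48 h.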

[2] = test system: Botrtyis cinerea (Bc); assay: Growth inhibition assay of fungal pathogens; assay type: cell-based; settings: 48 h, Table 4b, read-out: Concentration at 90% Inhibition Bc
How it was run: (§1)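 Spore suspension in 17% V8 broth; cpd final 50/10/2 or 2/0.4/0.08 ppm, 2% DMSO. OD600 at 24 + 48 h, media blank subtracted, plus visual scoring. % inhibition at 48 h vs DMSO control.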

[3] = test system: Collectotrichum graminicola (Cg); assay: Growth inhibition assay of fungal pathogens; assay type: cell-based; settings: 48 h, Table 4b, read-out: Concentration at 90% Inhibition Cg
How it was run: as §1

[4] = test system: Diplodia maydis (Dm); assay: Growth inhibition assay of fungal pathogens; assay type: cell-based; settings: Stenocarpella maydis, 48 h, Table 4b, read-out: Concentration at 90% Inhibition Dm
How it was run: as §1

[5] = test system: Fusarium moniliforme (Fm); assay: Growth inhibition assay of fungal pathogens; assay type: cell-based; settings: Fusarium verticillioides, 48 h, Table 4b, read-out: Concentration at 90% Inhibition Fm
How it was run: as §1

[6] = test system: Fusarium virguliforme (Fv); assay: Growth inhibition assay of fungal pathogens; assay type: cell-based; settings: 48 h, Table 4b, read-out: Concentration at 90% Inhibition Fv
How it was run: as §1

[7] = test system: Phytophthora capsici (Pc); assay: Growth inhibition assay of fungal pathogens; assay type: cell-based; settings: 48 h, Table 4b, read-out: Concentration at 90% Inhibition Pc
How it was run: as §1

[8] = test system: Rhizoctonia solani (Rs); assay: Growth inhibition assay of fungal pathogens; assay type: cell-based; settings: 48 h, Table 4b, read-out: Concentration at 90% Inhibition Rs
How it was run: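 Spores, or mycelial plugs for Rhizoctonia, in 17% V8 medium (¼ PDB for plugs) were exposed to compound at final 50, 10 and 2 ppm or 2, 0.4 and 0.08 ppm, with 2% DMSO. Growth was read by OD600 with blank subtraction plus visual rating; percent inhibition at 48 h is relative to 2% DMSO control.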

[9] = test system: Septoria tritici (St); assay: Growth inhibition assay of fungal pathogens; assay type: cell-based; settings: Zymoseptoria tritici, 48 h, Table 4b, read-out: Concentration at 90% Inhibition St
How it was run: as §1

Compound	MIC [1] [µg/mL]	IC90 [2] [µg/mL]	IC90 [3] [µg/mL]	IC90 [4] [µg/mL]	IC90 [5] [µg/mL]	IC90 [6] [µg/mL]	IC90 [7] [µg/mL]	IC90 [8] [µg/mL]	IC90 [9] [µg/mL]
CCOC(=O)c1sc2c(c1C)c(=O)n([C@@H](C)C(=O)N(C)C(C)C)c(=O)n2C[C@H](OCCC#N)c1cc(F)ccc1OC [Compound I-28, ethyl 1-((R)-2-(2-cyanoethoxy)-2-(5-fluoro-2-methoxy-phenyl)-ethyl)-3-((S)-1-(isopropyl(methyl)amino)-1-oxopropan-2-yl)-5-methyl-2,4-dioxo-1,2,3,4-tetrahydrothieno[2,3-d]pyrimidine-6-carboxylate]	0.25 to 1 (≈ 0.415 to 1.66 µM)	2 (≈ 3.32 µM)	10 (≈ 16.6 µM)	10 (≈ 16.6 µM)	0.4 (≈ 0.664 µM)	0.4 (≈ 0.664 µM)	≥ 50	0.08 (≈ 0.133 µM)	10 (≈ 16.6 µM)
CCNC(=O)C(C)(C)n1c(=O)c2c(C)c(C(=O)OCC)sc2n(C[C@H](OCCC#N)c2cc(F)ccc2OC)c1=O [Compound I-29, (R)-ethyl 1-(2-(2-cyanoethoxy)-2-(5-fluoro-2-methoxy-phenyl)ethyl)-3-(1-(ethylamino)-2-methyl-1-oxopropan-2-yl)-5-methyl-2,4-dioxo-1,2,3,4-tetrahydrothieno[2,3-d]pyrimidine-6-carboxylate]	2.1 to 4 (≈ 3.57 to 6.8 µM)	2 (≈ 3.4 µM)	0.4 (≈ 0.68 µM)	0.4 (≈ 0.68 µM)	0.08 (≈ 0.136 µM)	2 (≈ 3.4 µM)	≥ 50	0.08 (≈ 0.136 µM)	10 (≈ 17 µM)
CCOC(=O)c1sc2c(c1C)c(=O)n(C(C)(C)C(=O)NC(C)C)c(=O)n2C[C@H](OCCC#N)c1ccccc1OC [Compound I-31, ethyl (R)-1-(2-(2-cyanoethoxy)-2-(2-methoxyphenyl)ethyl)-3-(1-(isopropylamino)-2-methyl-1-oxopropan-2-yl)-5-methyl-2,4-dioxo-1,2,3,4-tetrahydrothieno[2,3-d]pyrimidine-6-carboxylate]	0.25 to 1 (≈ 0.428 to 1.71 µM)	0.4 (≈ 0.684 µM)	0.4 (≈ 0.684 µM)	0.4 (≈ 0.684 µM)	0.08 (≈ 0.137 µM)	0.4 (≈ 0.684 µM)	2 (≈ 3.42 µM)	2 (≈ 3.42 µM)	10 (≈ 17.1 µM)
CCNC(=O)C(C)(C)n1c(=O)c2c(C)c(C(=O)OCC)sc2n(C[C@H](OCCC#N)c2ccccc2OC)c1=O [Compound I-32, ethyl (R)-1-(2-(2-cyanoethoxy)-2-(2-methoxyphenyl)ethyl)-3-(1-(ethylamino)-2-methyl-1-oxopropan-2-yl)-5-methyl-2,4-dioxo-1,2,3,4-tetrahydrothieno[2,3-d]pyrimidine-6-carboxylate]	0.25 to 1 (≈ 0.438 to 1.75 µM)	2 (≈ 3.5 µM)	2 (≈ 3.5 µM)	2 (≈ 3.5 µM)	0.08 (≈ 0.14 µM)	2 (≈ 3.5 µM)	≥ 50	2 (≈ 3.5 µM)	10 (≈ 17.5 µM)
CCOC(=O)c1sc2c(c1C)c(=O)n(C(C)(C)C(=O)NC(C)C)c(=O)n2C[C@H](OCC#N)c1cc(F)ccc1OC [Compound I-33, ethyl (R)-1-(2-(cyanomethoxy)-2-(5-fluoro-2-methoxy-phenyl)ethyl)-3-(1-(isopropylamino)-2-methyl-1-oxopropan-2-yl)-5-methyl-2,4-dioxo-1,2,3,4-tetrahydrothieno[2,3-d]pyrimidine-6-carboxylate]	2.1 to 4 (≈ 3.57 to 6.8 µM)	0.4 (≈ 0.68 µM)	2 (≈ 3.4 µM)	2 (≈ 3.4 µM)	0.08 (≈ 0.136 µM)	0.4 (≈ 0.68 µM)	≥ 50	0.4 (≈ 0.68 µM)	10 (≈ 17 µM)
CCOC(=O)c1sc2c(c1C)c(=O)n(C(C)(C)C(=O)NC(C)C)c(=O)n2C[C@H](OC[C@H](C)C#N)c1cc(F)ccc1OC [Compound I-34, ethyl 1-((R)-2-((R)-2-cyanopropoxy)-2-(5-fluoro-2-methoxyphenyl)ethyl)-3-(1-(isopropylamino)-2-methyl-1-oxopropan-2-yl)-5-methyl-2,4-dioxo-1,2,3,4-tetrahydrothieno[2,3-d]pyrimidine-6-carboxylate]	2.1 to 4 (≈ 3.41 to 6.49 µM)	0.4 (≈ 0.649 µM)	0.08 (≈ 0.13 µM)	0.4 (≈ 0.649 µM)	0.08 (≈ 0.13 µM)	0.4 (≈ 0.649 µM)	10 (≈ 16.2 µM)	0.08 (≈ 0.13 µM)	2 (≈ 3.24 µM)
CCOC(=O)c1sc2c(c1C)c(=O)n(C(C)(C)C(=O)NC(C)C)c(=O)n2C[C@H](OC[C@@H](C)C#N)c1cc(F)ccc1OC [Compound I-35, ethyl 1-((R)-2-((S)-2-cyanopropoxy)-2-(5-fluoro-2-methoxyphenyl)ethyl)-3-(1-(isopropylamino)-2-methyl-1-oxopropan-2-yl)-5-methyl-2,4-dioxo-1,2,3,4-tetrahydrothieno[2,3-d]pyrimidine-6-carboxylate]	2.1 to 4 (≈ 3.41 to 6.49 µM)	0.4 (≈ 0.649 µM)	0.08 (≈ 0.13 µM)	0.4 (≈ 0.649 µM)	0.08 (≈ 0.13 µM)	0.4 (≈ 0.649 µM)	≥ 50	0.08 (≈ 0.13 µM)	10 (≈ 16.2 µM)
CCOC(=O)c1sc2c(c1C)c(=O)n(C(C)(C)C(=O)NC(C)C)c(=O)n2C[C@H](OCCS(C)(=O)=O)c1cc(F)ccc1OC [Compound I-36, ethyl (R)-1-(2-(5-fluoro-2-methoxyphenyl)-2-(2-(methylsulfonyl)ethoxy)ethyl)-3-(1-(isopropylamino)-2-methyl-1-oxopropan-2-yl)-5-methyl-2,4-dioxo-1,2,3,4-tetrahydrothieno[2,3-d]pyrimidine-6-carboxylate]	2.1 to 4 (≈ 3.2 to 6.1 µM)	2 (≈ 3.05 µM)	0.4 (≈ 0.61 µM)	2 (≈ 3.05 µM)	0.4 (≈ 0.61 µM)	2 (≈ 3.05 µM)	≥ 50	0.4 (≈ 0.61 µM)	≥ 50
CCOC(=O)c1sc2c(c1C)c(=O)n(C(C)(C)C(=O)NC(C)C)c(=O)n2C[C@H](OCC(C)(C)C#N)c1cc(F)ccc1OC [Compound I-37, ethyl (R)-1-(2-(2-cyano-2-methylpropoxy)-2-(5-fluoro-2-methoxyphenyl)ethyl)-3-(1-(isopropylamino)-2-methyl-1-oxopropan-2-yl)-5-methyl-2,4-dioxo-1,2,3,4-tetrahydrothieno[2,3-d]pyrimidine-6-carboxylate]	2.1 to 4 (≈ 3.33 to 6.34 µM)	0.4 (≈ 0.634 µM)	0.4 (≈ 0.634 µM)	0.4 (≈ 0.634 µM)	0.08 (≈ 0.127 µM)	0.4 (≈ 0.634 µM)	≥ 50	2 (≈ 3.17 µM)	≥ 50
CCOC(=O)c1sc2c(c1C)c(=O)n(C(C)(C)C(=O)NC(C)C)c(=O)n2C[C@H](OCC(C)(C)C#N)c1ccccc1OC [Compound I-38, ethyl (R)-1-(2-(2-cyano-2-methylpropoxy)-2-(2-methoxyphenyl)ethyl)-3-(1-(isopropylamino)-2-methyl-1-oxopropan-2-yl)-5-methyl-2,4-dioxo-1,2,3,4-tetrahydrothieno[2,3-d]pyrimidine-6-carboxylate]	> 4.1	0.4 (≈ 0.653 µM)	2 (≈ 3.26 µM)	2 (≈ 3.26 µM)	0.08 (≈ 0.131 µM)	2 (≈ 3.26 µM)	≥ 50	2 (≈ 3.26 µM)	≥ 50
CCNC(=O)C(C)(C)n1c(=O)c2c(C)c(C(=O)OCC)sc2n(C[C@H](O)c2cc(F)ccc2OC)c1=O [Compound I-39, ethyl (R)-3-(1-(ethylamino)-2-methyl-1-oxopropan-2-yl)-1-(2-(5-fluoro-2-methoxyphenyl)-2-hydroxyethyl)-5-methyl-2,4-dioxo-1,2,3,4-tetrahydrothieno[2,3-d]pyrimidine-6-carboxylate]	0.25 to 1 (≈ 0.467 to 1.87 µM)	10 (≈ 18.7 µM)	≥ 50	≥ 50	2 (≈ 3.73 µM)	2 (≈ 3.73 µM)	≥ 50	0.08 (≈ 0.149 µM)	≥ 50
